From patent US6384188B1, “Lipopolysaccharide-binding and neutralizing peptides” (Dana-Farber Cancer Institute, Inc., priority 1993, dated 2002)
Bridge positions count the residues as written; N and C are the ends. Peptide text beside a SMILES is read from it. * marks the point of attachment. Biotin = O=C1N[C@H]2[C@H](CS[C@H]2CCCCC(=O)*)N1

Columns and labels:
[1] = LPS binding as determined by ELISA (general description); parameters: species or system E. coli
From the text: (§1) In a still further preferred embodiment, the present invention provides for peptides which effectively bind to LPS and are constrained to adopt a circular conformation by an intramolecular bridge. In this context, the circular conformation can be brought about by any one of a number of intramolecular bridges. Preferably, the peptide may incorporate two cysteine residues between which a disulfide bond is formed by an oxidation reaction. Alternatively, the two cysteines may be linked through a homo-bifunctional cross-linking reagent, such as a bis-maleimide. Particularly preferred are the cyclic peptides comprising amino acids 31 to 52 and amino acids 38 to 45 of LALF, each stabilized by a disulfide bond formed between two cysteine residues, producing a cyclic conformation (FIG. 2). […] This defines a minimal LPS-binding domain to be the peptide spanning amino acids 38 to 45 of LALF. […] Thus, particularly preferred are also the peptides spanning amino acids 90 to 101 and amino acids 90 to 97 of LBP (FIG. 3). […] This defines a second minimal LPS binding domain to be the peptide spanning amino acids 90 to 97 of LBP. […] Particularly preferred are the peptides spanning amino acids 90 to 97 and amino acids 90 to 101 of BPI (FIG. 4). This defines a third minimal LPS-binding domain to be the peptide spanning amino acids 90 to 97 of BPI.

[2] = ELISA binding of biotinylated peptides to immobilized lipid A; settings: biotinylated peptide 0.1-10 μg/ml on immobilized lipid A; FIG. 8, 9
Description: The lipid A-binding activities of the peptides are shown in an ELISA format as follows. An ELISA plate (NUNC, Polysorp 96U) is coated for 90 minutes at 37° C. with 100 μl lipid A in PBS (0.25-1 μg/ml). All further steps are done at room temperature. After washing and blocking (10 min.) with PBS/0.1% Tween, the solid phase is incubated for 1 hour with 100 μl of increasing amounts (0.1 μg/ml-10 μg/ml) of purified synthetic peptides (dissolved in PBST) labelled at the N-terminus with biotin. After washing with PBS/0.1% Tween, the bound peptides are incubated for 45 min. with 100 μl streptavidin conjugated to alkaline phosphatase (Boehringer Mannheim GmbH; 1:10000 diluted in PBS/0.1% Tween), followed again by washing with PBS/0.1% Tween and 100 mM Tris pH 9.5. p-Nitrophenylphosphate (2 mg/ml in 100 mM Tris pH 9.5) is used as a substrate for alkaline phosphatase. The ELISA is read at 405 nm.
To investigate the importance of the constrained conformation for high affinity peptide-lipid A binding, binding activity of cyclic and the corresponding linear peptides is compared.

[3] = Binding of fluorescein-labelled LPS to biotinylated peptides immobilized via streptavidin; parameters: species or system Salmonella enteriditis; settings: peptide 1 or 10 μg/ml on streptavidin plate, FITC-LPS 0.5 μg/ml; FIG. 12
Description: To investigate the potential use of multimeric peptides for increasing the binding to LPS, individual peptides are coated on an ELISA plate to high surface concentrations. Immobilization is performed by first coating the plate with strepravidin and then binding the peptides via their N-terminal biotin groups. Thus, 100 μl streptavidin (Boehringer Mannheim GmbH; 10 μg/ml in PBS) is used for coating followed by washing, blocking (10 min.) with PBS/0.1% Tween and a 30 min. incubation with 100 μl of purified synthetic peptides (1 μg/ml or 10 μg/ml in PBST) labelled at the N-terminus with biotin. After washing with PBS/0.1% Tween the peptides are incubated for 1 hr With FITC-labelled LPS (SIGMA; Salmonella enteriditis; 0.5 μg/ml in PBS/0.1% Tween). After washing with PBS/0.1% Tween, the ELISA plate is incubated with 100 μl of an anti-FITC antibody conjugated to alkaline phosphatase (SIGMA; 1:2500 diluted in PBS/0.1% Tween) and washed with PBS/0.1% Tween and 100 mM Tris pH 9.5. p-Nitrophenyl-phosphate (2 mg/ml in 100 mM Tris pH 9.5) is used as a substrate for alkaline phosphatase. The ELISA is read at 405 nm. All steps are done at room temperature.

[4] = system: LALF binding to immobilized lipid A; assay: Competition of LALF:lipid A binding by peptides (ELISA)
Description: (§2) To investigate the specificity of peptides in binding lipid A and LPS, competition experiments with known endotoxin binding proteins such as LALF and LBP and the antibiotic polymyxin B are carried out. Thus an ELISA plate (NUNC, Polysorp 96U) is coated for 90 min. at 37° C. with 100 μl lipid A in PBS (0.25-0.3 μg/ml) or lipopolysaccharide in PBS (0.25-0.3 μg/ml). All further steps are done at room temperature. After washing and blocking (10 min.) with PBS/0.1% Tween, the solid phase is incubated for 1 hr with 100 μl or increasing amounts (0.01 μg/ml-100 μg/ml in PBS/0.1% Tween) of unlabelled or biotin-labelled peptides mixed with an endotoxin binding protein (LALF or LBP; 0.2 μg/ml in PBS/0.1% Tween). After washing with PBS/0.1% Tween, the ELISA plate is incubated for 45 min. with 100 μl of a rabbit antiserum against LALF or LBP, respectively. After washing with PBS/0.1% Tween the ELISA plate is incubated with 100 μl anti-rabbit antibody conjugated to alkaline phosphatase (SIGMA; 1:10000 diluted in PBS/0.1% Tween) and washed with PBS/0.1% Tween and 100 mM Tris pH 9.5. p-Nitrophenyl-phosphate (2 mg/ml in 100 mM Tris pH 9.5) is used as a substrate for alkaline phosphatase. The ELISA is read at 405 nm.

[5] = system: biotin-labelled LBP-14 binding to immobilized lipid A; assay: Competition of LBP14:lipid A binding by peptides and proteins (ELISA); settings: unlabelled competitor in increasing amounts, biotin-LBP-14 1 μg/ml; FIG. 16; very similar result with LALF-14
Description: An ELISA plate (NUNC, Polysorp 96U) is coated for 90 min. at 37° C. with 100 μl lipid A in PBS (0.2-0.3 μg/ml). All further steps are done at room temperature. After washing and blocking (10 min.) with PBS/0.1%. Tween, the solid phase is incubated for 1 hr with 100 μl of increasing amounts (0.01 μg/ml-10 μg/ml) of unlabelled peptides or proteins mixed with a biotin-labelled peptide (1 μg/ml in PBST/0.1% Tween). After washing with PBS/0.1% Tween, 100μl streptavidin conjugated to alkaline phosphatase (Boehringer Mannheim GmbH, 1:10000 diluted in PBS/0.1% Tween) is added to the wells. This incubation is followed by washing with PBS/0.1% Tween and 100 mM Tris pH 9.5. p-Nitrophenyl-phosphate (2 mg/ml in 100 mM Tris pH 9.5) is used as a substrate for alkaline phosphatase. The ELISA is read at 405 nm.
CD14 is used to compete the peptide-lipid A binding. The principle of such a binding assay is the same as for the LALF- or LBP-lipid A competition assays in which a constant amount of detectable peptide or protein is competed by an increasing amount of another peptide or protein. Instead of detecting LALF, bound biotin-labelled peptide is detected with streptavidin conjugated to alkaline phosphatase, and the labelled peptide concentration is kept constant while the unlabelled peptide or protein amount is increased. […] A very similar result is observed when LALF-14 is used instead of LBP-14.

[6] = system: LALF binding to immobilized lipid A; assay: Influence of serum on the competition of LALF:lipid A binding by peptide; settings: 100 μg/ml peptide, 10% fetal calf serum; FIG. 18
Description: as §2, with “nm. […]” for “nm.”

[7] = Chromogenic Limulus amebocyte lysate test; type: biochemical, E. coli; settings: peptides 0.1-10 μg/ml preincubated with LPS 15 min at 37° C.; FIG. 19
Description: (§3) The Limulus amebocyte Lysate test (gelling assay; sensitivity 0.125 EU/ml) and the Chromogenic Limulus amebocyte Lysate test (sensitivity 0.06 EU/ml) are performed according to the manufacturer's instruction (Bio*Whittaker, Walkersville, Md.) using E. coli 055:B5 lipopolysaccharide. For neutralisation of LPS, peptides (0.1-10 μg/ml) and LPS are incubated for 15 min. at 37° C. and then added to the Limulus lysate. […] The chromogenic assay allows quantification of the lipopolysaccharide neutralizing capacity of the peptides.

[8] = LPS binding as shown by ELISA (general description); settings: FIG. 2-7 peptides
From the text: as §1

[9] = system: LBP binding to immobilized lipid A; assay: Competition of LBP:lipid A binding by peptides (ELISA); settings: 100 μg/ml peptide; FIG. 15
Description: as §2
The ability of the peptides to compete with LBP for binding to LPS is determined in the same way as in Example 5, except that LALF is replaced with LBP (see FIG. 15). […]

[10] = Limulus amebocyte lysate test (gelling assay); type: biochemical, E. coli; settings: peptides 0.1-10 μg/ml preincubated with LPS 15 min at 37° C.; FIG. 19
Description: as §3

[11] = system: monocytes (LPS Re-LPS F515 induced TNF release); assay: Inhibition of LPS-mediated TNF release by monocytes; type: cell-based, human; settings: peptide 10 μg/ml preincubated with LPS; TNF by ELISA; FIG. 20
Description: Monocytes are purified with a ficoll gradient (d=1.077) from whole blood by centrifugation for 20 min. at 2200 rpm at room temperature. Ficoll is removed by washing 3 times with PBS. Purified monocytes are counted and diluted to 2×10^6 cells/900 μl in medium (RPMI+) or medium with 0.1%-10% human serum. For TNF induction, 2×10^6 monocytes (in 900 μl medium or medium with serum) and 100 μl of LPS (Re-LPS F515; 0.1 ng/ml-10 ng/ml) or mixtures of LPS with peptides (10 μg/ml) (preincubated for 15 min. at 37° C.) are incubated in a 24 well plate (NUNC) for 2 to 5 hr. The supernatant is taken off and spun twice for 2 min. at 1500 rpm, once for 5 min. at 15000 rpm and stored at −20° C. for TNF determination. The induced TNF is assayed by ELISA according to the manufacturer's instruction (BioSource International, California) using a 50 μl sample of thawed supernatant.

[12] = peptide 0.01-100 μg/ml, LALF 0.2 μg/ml, FIG. 13, 14

In the case of `CC(C)C[C@@H]1NC(=O)[C@H](CCCNC(=N)N)NC(=O)[C@H](CCCNC(=N)N)NC(=O)[C@H](Cc2ccccc2)NC(=O)[C@H]([C@@H](C)O)NC(=O)[C@@H](NC(=O)CCCC[C@@H]2SC[C@@H]3NC(=O)N[C@@H]32)CSSC[C@@H](C(=O)O)NC(=O)[C@H](CCCCN)NC(=O)[C@H](Cc2c[nH]c3ccccc23)NC(=O)[C@H](CCCCN)NC1=O` [LALF-10] (Biotin-CTFRRLKWKC-OH; disulfide 1-10), the “binding to E. coli EH 100 LPS as determined by ELISA” value [1] is reported as “Both bind lipid A and, additionally, two different types of LPS-molecules”.

In the case of `CC[C@H](C)[C@@H]1NC(=O)[C@H](CCCNC(=N)N)NC(=O)[C@H](Cc2ccc(O)cc2)NC(=O)[C@H](Cc2c[nH]cn2)NC(=O)[C@@H](N)CSSC[C@@H](C(=O)O)NC(=O)[C@H](Cc2c[nH]c3ccccc23)NC(=O)[C@H](Cc2ccccc2)NC(=O)[C@H](CCCCN)NC(=O)CNC(=O)[C@H](CCCCN)NC(=O)[C@H](Cc2ccc(O)cc2)NC(=O)[C@H](CCCCN)NC(=O)[C@H](Cc2c[nH]c3ccccc23)NC(=O)[C@H](CCCCN)NC(=O)[C@H](CC(C)C)NC(=O)[C@H](CCCNC(=N)N)NC(=O)[C@H](CCCNC(=N)N)NC(=O)[C@H](Cc2ccccc2)NC(=O)[C@H]([C@@H](C)O)NC(=O)[C@@H]2CCCN2C(=O)[C@H](CCCCN)NC1=O` [amino acids 31 to 52 of LALF] (H-CHYRIKPTFRRLKWKYKGKFWC-OH; disulfide 1-22; N-terminus and C-terminus assumed), the “binding to E. coli EH 100 LPS as determined by ELISA” value [1] is reported as “Both bind lipid A and, additionally, two different types of LPS-molecules”.

With “Biotin-Z-C-K-W-K-I-R-K-F-S-C-N (Z=β-alanine) [MS-22]” the “lipid A-binding activity (ELISA)” value [2] was “binds lipid A clearly above background level and with a similar activity to LBP-10-1, but weaker than MS-21”.

With “Biotin-Z-K-C-F-T-R-R-A-K-W-R-C (Z=β-alanine) [MS-21]” the “lipid A-binding activity (ELISA)” value [2] was “binds lipid A weaker than LALF-14 and LBP-14, but slightly better than BPI-14”, the “binding of FITC-labelled LPS to immobilized peptide” value [3] was “highest binding affinity to LPS” and the “competition with LALF for lipid A binding” value ([4]; at 100 μg/ml peptide, FIG. 14) was ~80%.

In the case of “I-K-T-K-K-F-L-K-K-T (IKTKKFLKKT) [PolP-1]”, the “competition with LALF for lipid A binding” value [4, 12] is reported as “hardly competes with LALF for lipid A binding”, the “competition of LBP-14 binding to lipid A” value [5] is reported as “only slightly above the background determined by lysozyme as competitor” and the “competition with LALF for lipid A binding in the presence of 10% serum” value [6] is reported as “only inhibit slightly above background”. For the same molecule, the “inhibition of the chromogenic Limulus amebocyte lysate assay” value [7] was “up to 25%”.

For “amino acids 90 to 97 of BPI: peptide spanning amino acids 90 to 97 of BPI, cyclic by disulfide bond between two cysteines”, the “binding to LPS as shown by ELISA” value [8] was “able to bind LPS”.

For lysozyme, the “competition with LALF for lipid A binding” value ([4]; at 100 μg/ml peptide, FIG. 14) was 10%, the “competition with LALF for lipid A binding” value [4, 12] was “not able to compete with LALF” and the “competition of LBP-14 binding to lipid A” value [5] was “background determined by lysozyme as competitor”.

With polymyxin B the “competition with LALF for lipid A binding” value [4, 12] was “able to displace LALF almost completely from immobilized lipid A”, the “competition with LBP for lipid A binding” value [9] was “not able to compete with LBP for binding to lipid A” and the “competition of LBP-14 binding to lipid A” value [5] was “only weak competition activity at the highest concentration used”. The “competition with LALF for lipid A binding in the presence of 10% serum” value [6] was “also inhibiting in the presence of 10% serum”, the “inhibition of LPS-mediated gelling of Limulus amebocyte lysate” value [10] was “inhibit the assays” and the “inhibition of TNF release” value [11] was 95%.
